For 2 compounds, Activity and inhibition in vivo results are on record in ChEMBL document CHEMBL4808189, “The combination of sesamol and clofibric acid moieties leads to a novel potent hypolipidemic agent with antioxidant, anti-inflammatory and hepatoprotective activity” (Bioorg Med Chem Lett, 2021).

Calls of active or inactive are those of the source. No cut-off for these calls is given here.

Data set [1] in a line: Hepatotoxicity in Kunming mouse assessed as increase in plasma alkaline phosphatase level at 412 mg/kg, ig for 1 month. Particulars: in vivo, po, 730 h, time 1 months. It counts as toxicity, organism-based.
A short description of data set [2]: Hepatotoxicity in Kunming mouse assessed as induction of inflammatory response by measuring upregulation of IL-6 level in liver at 412 mg/kg, ig for 1 month by western blot analysis. It counts as toxicity, organism-based. Particulars: in vivo, po, 730 h, time 1 months.
The nature of data set [3]: Acute toxicity in Kunming mouse assessed as change in body weight at 412 mg/kg, ig for 1 month. It counts as organism-based. Conditions: in vivo, po, 730 h, time 1 months.
A short description of data set [4]: Hepatotoxicity in Kunming mouse assessed as induction of oxidative stress by measuring increase in plasma MDA level at 412 mg/kg, ig for 1 month. It counts as toxicity, organism-based. Particulars: in vivo, po, 730 h, time 1 months.
Data set [5] can be described thus: Hepatotoxicity in Kunming mouse assessed as increase in plasma alanine aminotransferase level at 412 mg/kg, ig for 1 month. It counts as toxicity, organism-based. Conditions: in vivo, po, 730 h, time 1 months.
Data set [6] is described as follows: Hepatotoxicity in Kunming mouse assessed as hepatocyte swelling at 412 mg/kg, ig for 1 month by H and E staining based analysis. It counts as toxicity, organism-based. Conditions: in vivo, po, 730 h, time 1 months.
The nature of data set [7]: Hepatotoxicity in Kunming mouse assessed as induction of inflammatory response by measuring upregulation of TNF-alpha level in liver at 412 mg/kg, ig for 1 month by western blot analysis. It counts as toxicity, organism-based. Conditions: in vivo, po, 730 h, time 1 months.
Data set [8] in a line: Hepatotoxicity in Kunming mouse assessed as induction of oxidative stress by measuring decrease in plasma GSH level at 412 mg/kg, ig for 1 month. It counts as toxicity, organism-based. Conditions: in vivo, po, 730 h, time 1 months.
Data set [9] is described as follows: Hepatotoxicity in Kunming mouse assessed as increase in hepatic weight at 412 mg/kg, ig for 1 month. It counts as toxicity, organism-based. Particulars: in vivo, po, 730 h, time 1 months.
Data set [10] can be described thus: Hepatotoxicity in Kunming mouse assessed as induction of oxidative stress by measuring decrease in plasma CAT level at 412 mg/kg, ig for 1 month. Conditions: in vivo, po, 730 h, time 1 months. It counts as toxicity, organism-based.
A short description of data set [11]: Upregulation of p-NF-kB-p65 protein expression in Kunming mouse liver at 412 mg/kg, ig for 1 month by western blot analysis. Particulars: in vivo, po, 730 h, time 1 months. It counts as ADME, organism-based. Background: Immunoblotting shows a protein as a band on a membrane.
Data set [12] concerns Mus musculus. Briefly: Upregulation of Nrf2 protein expression in Kunming mouse liver nucleus at 412 mg/kg, ig for 1 month by western blot analysis. It counts as functional, organism-based. Conditions: time 1.0 months.
Data set [13] can be described thus: Hepatotoxicity in Kunming mouse assessed as cell infiltration in central vein and inflammatory cell infiltration at 412 mg/kg, ig for 1 month by H and E staining based analysis. It counts as toxicity, organism-based. Particulars: in vivo, po, 730 h, time 1 months.
Data set [14] relates to Mus musculus. The data set can be described thus: Upregulation of HO-1 protein expression in Kunming mouse liver at 412 mg/kg, ig for 1 month by western blot analysis. It counts as functional, organism-based. Particulars: time 1.0 months.
A short description of data set [15]: Hepatotoxicity in Kunming mouse assessed as induction of oxidative stress by measuring decrease in plasma superoxide dismutase level at 412 mg/kg, ig for 1 month. It counts as toxicity, organism-based. Particulars: in vivo, po, 730 h, time 1 months.
Data set [16] is described as follows: Hepatotoxicity in Kunming mouse assessed as increase in plasma total protein level at 412 mg/kg, ig for 1 month. Particulars: in vivo, po, 730 h, time 1 months. It counts as toxicity, organism-based.
Data set [17] can be described thus: Hepatotoxicity in Kunming mouse assessed as increase in plasma aspartate transaminase level at 412 mg/kg, ig for 1 month. It counts as toxicity, organism-based. Conditions: in vivo, po, 730 h, time 1 months.
Data set [18] is described as follows: Hepatotoxicity in Kunming mouse assessed as increase in liver coefficient at 412 mg/kg, ig for 1 month. It counts as toxicity, organism-based. Conditions: in vivo, po, 730 h, time 1 months.
The subject of data set [19] is Mus musculus. Briefly: Hypolipidemic activity in TritonWR1339-induced hyperlipidemic Kunming mouse model assessed as reduction in plasma TC level at 0.362 mmol/kg, ig administered for 7 days. It counts as functional. Conditions: po, 168 h, time 7 day.
The test system of data set [20] is Mus musculus. Briefly: Hypolipidemic activity in TritonWR1339-induced hyperlipidemic Kunming mouse model assessed as reduction in plasma TG level at 0.362 mmol/kg, ig administered for 7 days. It counts as functional. Particulars: po, 168 h, time 7 day.
Data set [21] is described as follows: Hepatotoxicity in Kunming mouse assessed as increase in plasma alanine aminotransferase level at 300 mg/kg, ig for 1 month. Conditions: in vivo, po, 730 h, time 1 months. It counts as toxicity, organism-based.
Data set [22] is described as follows: Hepatotoxicity in Kunming mouse assessed as increase in plasma alkaline phosphatase level at 300 mg/kg, ig for 1 month. It counts as toxicity, organism-based. Particulars: in vivo, po, 730 h, time 1 months.
The nature of data set [23]: Upregulation of p-NF-kB-p65 protein expression in Kunming mouse liver at 300 mg/kg, ig for 1 month by western blot analysis. It counts as ADME, organism-based. Conditions: in vivo, po, 730 h, time 1 months.
Data set [24] is described as follows: Hepatotoxicity in Kunming mouse assessed as increase in plasma aspartate transaminase level at 300 mg/kg, ig for 1 month. It counts as toxicity, organism-based. Particulars: in vivo, po, 730 h, time 1 months.
The test system of data set [25] is Mus musculus. The data set can be described thus: Upregulation of HO-1 protein expression in Kunming mouse liver at 300 mg/kg, ig for 1 month by western blot analysis. It counts as functional, organism-based. Particulars: time 1.0 months.
Data set [26] can be described thus: Hepatotoxicity in Kunming mouse assessed as increase in liver coefficient at 300 mg/kg, ig for 1 month. It counts as toxicity, organism-based. Conditions: in vivo, po, 730 h, time 1 months.
Data set [27] in a line: Hepatotoxicity in Kunming mouse assessed as cell infiltration in central vein and inflammatory cell infiltration at 300 mg/kg, ig for 1 month by H and E staining based analysis. It counts as toxicity, organism-based. Conditions: in vivo, po, 730 h, time 1 months.
Data set [28] in a line: Hepatotoxicity in Kunming mouse assessed as induction of inflammatory response by measuring upregulation of TNF-alpha level in liver at 300 mg/kg, ig for 1 month by western blot analysis. It counts as toxicity, organism-based. Conditions: in vivo, po, 730 h, time 1 months.
Data set [29] can be described thus: Hepatotoxicity in Kunming mouse assessed as induction of oxidative stress by measuring decrease in plasma superoxide dismutase level at 300 mg/kg, ig for 1 month. It counts as toxicity, organism-based. Conditions: in vivo, po, 730 h, time 1 months.
Data set [30] can be described thus: Acute toxicity in Kunming mouse assessed as change in body weight at 300 mg/kg, ig for 1 month. It counts as organism-based. Particulars: in vivo, po, 730 h, time 1 months.
The nature of data set [31]: Hepatotoxicity in Kunming mouse assessed as increase in plasma total protein level at 300 mg/kg, ig for 1 month. It counts as toxicity, organism-based. Particulars: in vivo, po, 730 h, time 1 months.
Data set [32] can be described thus: Hepatotoxicity in Kunming mouse assessed as induction of inflammatory response by measuring upregulation of IL-6 level in liver at 300 mg/kg, ig for 1 month by western blot analysis. It counts as toxicity, organism-based. Conditions: in vivo, po, 730 h, time 1 months.
The nature of data set [33]: Hepatotoxicity in Kunming mouse assessed as increase in hepatic weight at 300 mg/kg, ig for 1 month. It counts as toxicity, organism-based. Conditions: in vivo, po, 730 h, time 1 months.
Data set [34] in a line: Hepatotoxicity in Kunming mouse assessed as induction of oxidative stress by measuring increase in plasma MDA level at 300 mg/kg, ig for 1 month. It counts as toxicity, organism-based. Conditions: in vivo, po, 730 h, time 1 months.
Data set [35] is described as follows: Hepatotoxicity in Kunming mouse assessed as induction of oxidative stress by measuring decrease in plasma GSH level at 300 mg/kg, ig for 1 month. It counts as toxicity, organism-based. Conditions: in vivo, po, 730 h, time 1 months.
A short description of data set [36]: Hepatotoxicity in Kunming mouse assessed as large areas of hepatocyte swelling, necrosis, loose cytoplasm, nuclear degeneration and dissolution at 300 mg/kg, ig for 1 month by H and E staining based analysis. It counts as toxicity, organism-based. Particulars: in vivo, po, 730 h, time 1 months.
Data set [37] concerns Mus musculus. Briefly: Upregulation of Nrf2 protein expression in Kunming mouse liver nucleus at 300 mg/kg, ig for 1 month by western blot analysis. It counts as functional, organism-based. Particulars: time 1.0 months.
Data set [38] in a line: Hepatotoxicity in Kunming mouse assessed as induction of oxidative stress by measuring decrease in plasma CAT level at 300 mg/kg, ig for 1 month. It counts as toxicity, organism-based. Conditions: in vivo, po, 730 h, time 1 months.

Consider `CC(C)(Oc1ccc(Cl)cc1)C(=O)Oc1ccc2c(c1)OCO2`, for which the Activity result in data set [1] is “Non-Toxic”; in data set [2], “Non-Toxic”; in data set [3], “Non-Toxic”; in data set [4], “Non-Toxic”; in [5] it was “Non-Toxic”; in [6], “Toxic”. Also, the Activity result is on record as “Non-Toxic” in data set [7]; “Toxic” in [8]; “Non-Toxic” in data set [9]; “Non-Toxic” in data set [10]; “Non-Toxic” in data set [11]; “Non-Toxic” in [13]. The Activity result in data set [15], in data set [16], in [17] and in data set [18] was “Non-Toxic” in each case. Further, the result with Mus musculus [12] and with Mus musculus [14] was Active. The inhibition in vivo at 362 µmol/kg in the data set with Mus musculus [19] was found to be 35.1%; in the data set on Mus musculus [20], 38.6%.

As for `CCOC(=O)C(C)(C)Oc1ccc(Cl)cc1` [CLOFIBRATE], the Activity entry in data set [21], in data set [22], in data set [23], in data set [24], in data set [26] and in data set [27] was “Toxic” each time. Further, the Activity result in data set [28] was “Toxic”; in data set [29] it was “Toxic”; in [30] it was “Non-Toxic”; in data set [31], “Toxic”; in [32], “Toxic”; in [33], “Toxic”. In addition, the Activity entry in data set [34], in data set [35], in data set [36] and in data set [38] was “Toxic” in each case. For the same compound, the result in the data set with Mus musculus [25] and with Mus musculus [37] was inactive. Moreover, the values for the inhibition in vivo at 362 µmol/kg with Mus musculus [19] and in the data set on Mus musculus [20] were 21.2% and 25.5%, respectively.

In general, inhibition in vivo refers to the relative decrease from the control value, in per cent.
